Source: a melting point compilation (Tetko et al.)

melting point	Structure (SMILES)
230 to 232 °C	O=C(O)c1ccn(-c2cccc([N+](=O)[O-])c2)n1
53 to 55 °C	O=C(CCl)N1CCSc2ccccc21
78 to 80 °C	CSCc1cccc(C(=O)O)c1
102 to 104 °C	O=C(O)C1(Cc2ccccc2)CC1
210 to 212 °C	Cc1nc2cc(C(=O)O)ccc2n1-c1ccccc1
219 to 221 °C	Cc1ccccc1-c1nnc(N)[nH]1
119 to 121 °C	NC(=O)C1CCNc2ccccc21 (configuration not stated)
107 to 109 °C	CC(=O)c1ccc(S(=O)(=O)NCc2ccco2)cc1
92 to 94 °C	Fc1ccc(NC(=NC2CC2)c2ccccc2)cc1
135 to 137 °C	O=C(O)C(Oc1ccc(Cl)cc1Br)c1ccccc1 (configuration not stated)
198 to 200 °C	Nc1nc(-c2ccccc2Cl)c(-c2ccccc2Cl)s1
169 to 171 °C	Cc1ccc(-c2csc(NC(=O)CCl)n2)cc1
267 to 269 °C	Cc1[nH]c2ncnn2c(=O)c1CCO
69 to 71 °C	CS(=O)(=O)c1ccc(F)c(N)c1
239 to 241 °C	NC1(C(=O)O)CCOc2ccccc21 (configuration not stated)
209 to 211 °C	O=C1NC(=O)C2(CCCN(Cc3ccccc3)C2)N1 (configuration not stated)
188 to 190 °C	Nc1c(-c2cccs2)nc2ccccn12
137 to 139 °C	FC(F)(F)Cc1nnc2ccc(Cl)nn12
86 to 88 °C	CCOCc1ccc(CNC(=O)CCl)cc1
108 to 110 °C	O=C(O)CCc1ccc(F)cc1F
185 to 187 °C	CNc1cc(NC)c([N+](=O)[O-])cc1F
122 to 124 °C	Nc1cc(-c2ccc(F)cc2F)on1
163 to 165 °C	NNC(=O)NCc1ccc(Cl)cc1

melting point	Structure (SMILES)
240 to 242 °C	NS(=O)(=O)c1ccc2c(c1)C(=O)NCC2
74 to 76 °C	CC(C)c1cccc(S(N)(=O)=O)c1
82 to 84 °C	O=S(=O)(Cl)c1c(Br)cc(F)cc1Br
159 to 161 °C	Cc1cc(F)c(S(N)(=O)=O)cc1[N+](=O)[O-]
124 to 126 °C	C=CCc1cc(C(=O)O)cc(OC)c1OC
39 to 41 °C	COCC(=O)c1ccc(F)c(F)c1
98 to 100 °C	O=C(O)c1c2c(nc3ccccc13)C(=Cc1ccccc1Cl)CCC2
114 to 116 °C	COc1nc(Cl)nc(N2CCCCCC2)n1
242 to 244 °C	O=C(O)c1cc(-c2ccc(Cl)s2)nc2ccccc12
154 to 156 °C	CC(=O)Oc1ccc(C)cc1C(=O)O
179 to 181 °C	COc1cccc(C2C(C(=O)O)CC(=O)N2C2CC2)c1 (configuration not stated)
183 to 185 °C	O=C(O)c1cc(-c2ccccc2)ns1
83 to 87 °C	CCOC(=O)c1c(N)sc2c1CCN(CC)C2
78 to 80 °C	CCCCc1ccc(CC(=O)O)cc1
34 to 36 °C	Cc1ccc(Br)c2cccnc12
223 to 225 °C	CC1CCC2(CC1)NC(=O)N(CC(=O)O)C2=O (configuration not stated)
89 to 91 °C	COc1cc(Br)c(S(=O)(=O)Cl)cc1Cl
83 to 85 °C	O=C(O)CC1CCC(c2ccccc2)CC1 (configuration not stated)
117 to 119 °C	CC(C)CCC1CCC(=O)NC1=O (configuration not stated)
72 to 74 °C	CCOc1nc(Cl)ncc1Br
96 to 98 °C	CCOc1ccccc1Oc1ccccc1C(=O)O
150 to 152 °C	CCNC(=O)NC(C)(C)C(=O)O
165 to 167 °C	Nc1ccc(N2CCCC2=O)cn1

melting point	Structure (SMILES)
173 to 175 °C	Nc1c(C(=O)c2cccs2)oc2ccccc12
76 to 78 °C	O=C(O)Cc1ccccc1OC(F)F
64 to 66 °C	O=S(=O)(Cl)c1cc(Br)ccc1Cl
199 to 201 °C	O=C(O)C1CCN(c2ccc3nnnn3n2)CC1
124 to 126 °C	COc1ccc2cc(C=CC#N)ccc2c1
147 to 149 °C	O=[N+]([O-])c1ccccc1S(=O)(=O)N1CCNCC1
90 to 92 °C	Cc1ccc(-n2c(SCC(=O)NN)nnc2-c2ccccc2)cc1
84 to 86 °C	Nc1ncccc1OCc1cccc(Cl)c1
147 to 149 °C	c1coc(-c2nc(C3CCCCC3)n[nH]2)c1
87 to 89 °C	CCOC(=O)c1cnn(-c2cccc(N)c2)c1C(F)(F)F
98 to 100 °C	O=C(O)CNC(=O)OCC(F)(F)F
239 to 241 °C	Cc1ccc(Br)c2c1NC(=O)C2=O
187 to 189 °C	CC(C)C(NC(=O)c1ccncc1)C(=O)O (configuration not stated)
101 to 103 °C	Nc1cccc(OCC(=O)N2CCCC2)c1
178 to 180 °C	O=C(O)CS(=O)c1ccc([N+](=O)[O-])cc1 (configuration not stated)
81 to 83 °C	Cc1cc(Cl)c(CO)c(Cl)n1
102 to 104 °C	CC(=O)c1ccc(S(=O)(=O)CC(F)(F)F)cc1
132 to 134 °C	COc1cc2nc(-c3ccccc3)nc(Cl)c2cc1OC
64 to 66 °C	COC(=O)c1ccc(N)c(OC(F)F)c1
286 to 288 °C	O=c1[nH]c(CCl)nc2sc(-c3ccccc3)cc12
117 to 119 °C	COC(=O)CC(NC(=S)NC12CC3CC(CC(C3)C1)C2)C(=O)OC (configuration not stated)
151 to 153 °C	Cc1oc(C(=O)O)cc1S(=O)(=O)N(C)C
203 to 205 °C	Cc1cc(N)n(-c2ncccn2)n1

melting point	Structure (SMILES)
72 to 74 °C	N#Cc1ccccc1Oc1ccccn1
143 to 145 °C	NC(=NO)c1ccc(COc2ccccc2)cc1
139 to 141 °C	O=C(O)C1CCCN1c1ncnc2ccccc12 (configuration not stated)
199 to 201 °C	Cc1[nH]c2ccccc2c1C(=O)C(=O)O
139 to 141 °C	N#Cc1cccc(NC(=O)NC2CC2)c1
189 to 191 °C	O=C(O)C1CCCN(C(=O)c2ccccc2)C1 (configuration not stated)
141 to 143 °C	CN(C(=O)c1ccccc1N)C1CCCCC1
278 to 280 °C	Cc1cc(C)c2c(C)c(C(=O)O)sc2n1
87 to 89 °C	O=C(O)CCNS(=O)(=O)C(F)(F)F
203 to 205 °C	O=C1Nc2c(ccc(Cl)c2Cl)C1=O
117 to 119 °C	CCCc1cc(Cl)n2nc(C(=O)OC)nc2n1
128 to 130 °C	Cc1cc(NC(=O)OCC(F)(F)F)n(CCC#N)n1
101 to 103 °C	O=S(=O)(Cl)c1c(Cl)nc2ccccn12
130 to 132 °C	O=c1ccc([N+](=O)[O-])cn1CCCl
77 to 81 °C	COc1cc(C=O)ccc1OCc1ccc(F)cc1
105 to 107 °C	COc1nc(Cl)c(C=O)n1C
142 to 144 °C	O=C(O)c1ccc(S(=O)(=O)Cl)cc1F
65 to 67 °C	CC(C)Oc1ccc2ccccc2c1C=O
126 to 128 °C	Cc1ccc(S(=O)(=O)NCCC(=O)O)cc1C
108 to 110 °C	Cc1nn(-c2ccccc2)c(N)c1SC#N
139 to 141 °C	O=c1[nH]c(CNCc2ccccc2)nc2ccccc12
133 to 135 °C	Nc1nc(Cc2ccccc2)ns1
261 to 263 °C	CC1=NN(c2ccc(C(=O)O)cc2)CC1

melting point	Structure (SMILES)
206 to 208 °C	O=C(O)c1cnc2onc(C3CC3)c2c1
119 to 121 °C	O=C1CCCc2nc(-c3ccccc3)sc21
214 to 216 °C	Nc1nnc(-c2ccc(Br)cc2)[nH]1
157 to 159 °C	CCCCCCn1cc(S(=O)(=O)Cl)c(=O)[nH]c1=O
110 to 112 °C	CCOC(=O)c1ccc(-c2ccc(C=O)o2)cc1
202 to 204 °C	Cc1cc(C)n(CCCCl)n1
197 to 199 °C	Nc1ccc2c(c1)S(=O)(=O)CC2
85 to 87 °C	CC1CCC(C(C)C)C(OC(=O)CO)C1 (configuration not stated)
104 to 106 °C	Cn1ncc2ccc(C#N)cc21
164 to 166 °C	O=Cc1sc(Nc2ccccc2)nc1Cl
113 to 115 °C	CC(C)Cc1ccc(C(=O)CCC(=O)O)cc1
85 to 89 °C	Nc1ccccc1C(=O)N1CCCC1
75 to 77 °C	O=C(O)CNS(=O)(=O)c1ccc2c(c1)OCCCO2
111 to 113 °C	OCC1CCCN(c2cc(Cl)ncn2)C1 (configuration not stated)
115 to 127 °C	CC(C)(C)C(=O)N1CCC(C(=O)O)CC1
232 to 234 °C	Nc1nnc(-c2ccc(F)cc2F)o1
204 to 206 °C	Cc1ccc(-c2cc(C(=O)O)on2)cc1
66 to 68 °C	O=Cc1ccc(-c2ccccc2F)o1
110 to 112 °C	CS(=O)(=O)Cc1noc(C(Cl)(Cl)Cl)n1
49 to 51 °C	Cc1ccoc1-c1nnc(CCl)o1
91 to 93 °C	ClCc1coc(-c2ccc(Cl)cc2)n1
109 to 111 °C	CCOC(=O)c1nc(NCCc2ccccc2)sc1C
112 to 114 °C	O=C(O)CCOc1ccccc1F

melting point	Structure (SMILES)
76 to 78 °C	O=C(O)CCSc1ccc(F)cc1
134 to 136 °C	Cc1nc(Cl)c(NN)nc1C
241 to 243 °C	O=C(O)C1CCN(c2ccc(S(=O)(=O)N3CCCCC3)cc2[N+](=O)[O-])CC1
273 to 275 °C	Cc1ccc2[nH]nc(C(=O)O)c2c1
143 to 145 °C	Nc1nc2c(Cl)cccc2[nH]1
103 to 105 °C	COC(=O)c1nc(Cl)c2ccccc2c1OC
143 to 145 °C	O=C(O)CCc1nc(-c2ccoc2)no1
94 to 96 °C	Nc1cc([N+](=O)[O-])ccc1Sc1cccs1
72 to 74 °C	CC(C)(C)OC(=O)N[C@@H]1CCCCC[C@H]1N
86 to 89 °C	CS(=O)(=O)c1nc2ccccc2s1
58 to 60 °C	CC(=O)c1ccc2c3c(cccc13)CC2
116 to 118 °C	O=C(O)C1CCCCN1C(=O)C1CCCO1 (configuration not stated)
94 to 96 °C	CCOC(=O)c1c(N)sc(-c2ccccc2)c1C
58 to 60 °C	COCCOc1ncccc1C(=O)O
181 to 183 °C	O=S(=O)(c1ccc2c(c1)NCC2)N1CCCC1
45 to 50 °C	CCc1cc(O)ccc1Cl
54 to 56 °C	O=C(O)Cc1ccc2c(c1)OCCO2
46 to 48 °C	CCOc1ccc(C=CCN)cc1
137 to 139 °C	CS(=O)(=O)N1CCc2cc(C(=O)CCl)ccc21
164 to 166 °C	COc1cc(OC)cc(C(=O)N2CCC(C(=O)O)CC2)c1
185 to 187 °C	NC(=O)c1ccc(C(F)(F)F)nc1

Structure (SMILES)	melting point
CCOC(=O)c1c(C)n(Cc2ccccc2)c2ccc(O)cc12	198 to 200 °C
CC(Oc1ccc(Cl)cc1)C(=O)O (configuration not stated)	111 to 113 °C
COC(=O)NC(=O)CCl	147 to 151 °C
O=C(OCCl)OC1CCCCC1	36 to 38 °C
Cc1ccc(C(=O)CBr)cc1C	63 to 65 °C
COCCNC(=O)NC(=O)CCl	103 to 105 °C
